3 substances from publication PMC11225074 (Clinical and Translational Medicine, 2024) can be followed below.

For assay [1], the system named is Histone H3K4me1 and H3K4me3 peptides. Nature of the assay: Dot blot of antibody specificity. In kind it is binding. To be noted: 1:1000, 16 h at 4°C, nitrocellulose, chemiluminescence. The source says: Next, the membranes were washed with 1×TBST in order to eliminate any antibodies that were not bound. Following washing, the membranes were exposed to secondary antibodies that were linked to HRP.

In assay [2] the test system is His‐YBX1. Briefly: Microscale thermophoresis (MST), His-YBX1 wild type. In kind it is binding. To be noted: PBS (pH 7.4) with 0.05% Tween‐20, peptide 10 nM to 500 µM, NT-647-NHS labelled protein; at least three experiments. For orientation: MST reads how a fluorescent partner responds to local heating, with and without ligand.
Description: The recombinant plasmids pGEX and pET‐28a expressing GST‐YBX1 and His‐YBX1, respectively, were transformed into E. coli BL21 to generate two recombinant strains pGEX‐GST‐YBX1 and pET‐28a‐His‐YBX1. These strains were inoculated into LB medium and cultured with ampicillin or kanamycin, and isopropylthio‐β‐D‐galactoside at 16°C overnight. Post‐culturing, the cells were collected and sonicated in PBS.
Proteins with labels were dissolved in a solution of PBS (pH 7.4) with 0.05% Tween‐20. […] After incubation, the mixture was moved to silica capillaries and thermophoresis was assessed using a NanoTemper Monolith NT.115 device from NanoTemper Technologies GmbH. Dissociation constant (Kd) values were determined using the law of mass action formula in NanoTemper Analysis 1.5.41 software. All microscale thermophoresis (MST) experiments were conducted at least three times.

As for “H3K4me1 antibody: anti‐H3K4me1 (1:1000; Abcam; ab176877)”, the “Antibody specificity towards the corresponding modification” value in assay [1] is reported as “high specificity”.
With “H3K4me3 antibody: anti‐H3K4me3 (1:1000; Abcam; ab213224)”, the “Antibody specificity towards the corresponding modification” value in assay [1] is recorded as “high specificity”.
As to “ART‐Kme0/1/3‐QTARKSTGGKAPRKQL [H3, chemically synthesized unmethylated histone H3 peptide of 20 amino acids (GenScript)]”, in assay [2], the “Binding of His-YBX1 to peptide (MST)” value is on record as “no discernible binding affinity”.
